According to PubChem BioAssay (NCI):
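These data come from cells grown in 96-well plates and exposed to compound for 48 hours at five concentrations. TGI: total growth inhibition.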

Legend:
Assay in all cases: NCI tumour cell line growth inhibition, 48 h
T-47D breast = test system: T-47D breast
SK-OV-3 ovarian = test system: SK-OV-3 ovarian
K-562 leukemia = test system: K-562 leukemia
ACHN renal = test system: ACHN renal
CAKI-1 renal = test system: CAKI-1 renal
MDA-MB-435 = test system: MDA-MB-435
IGROV1 ovarian = test system: IGROV1 ovarian
TK-10 renal = test system: TK-10 renal
UACC-257 melanoma = test system: UACC-257 melanoma
SF-268 CNS = test system: SF-268 CNS
M14 melanoma = test system: M14 melanoma
OVCAR-8 ovarian = test system: OVCAR-8 ovarian
NCI-H522 lung = test system: NCI-H522 lung
MDA-N = test system: MDA-N
NCI-H23 lung = test system: NCI-H23 lung
MALME-3M melanoma = test system: MALME-3M melanoma
SF-295 CNS = test system: SF-295 CNS
SF-539 CNS = test system: SF-539 CNS
MOLT-4 leukemia = test system: MOLT-4 leukemia
SNB-19 CNS = test system: SNB-19 CNS
NCI-H460 lung = test system: NCI-H460 lung
EKVX NSCLC = test system: EKVX NSCLC
HL-60(TB) leukemia = test system: HL-60(TB) leukemia
NCI-H226 lung = test system: NCI-H226 lung
HOP-62 NSCLC = test system: HOP-62 NSCLC
SNB-75 CNS = test system: SNB-75 CNS
LOX IMVI melanoma = test system: LOX IMVI melanoma
SK-MEL-5 melanoma = test system: SK-MEL-5 melanoma
786-0 renal = test system: 786-0 renal
SK-MEL-2 melanoma = test system: SK-MEL-2 melanoma
A549 NSCLC = test system: A549 NSCLC
RXF 393 renal = test system: RXF 393 renal
RPMI-8226 leukemia = test system: RPMI-8226 leukemia
SN12C renal = test system: SN12C renal
MDA-MB-231 breast = test system: MDA-MB-231 breast
CCRF-CEM leukemia = test system: CCRF-CEM leukemia
BT-549 breast = test system: BT-549 breast
SW-620 colon = test system: SW-620 colon
COLO 205 colon = test system: COLO 205 colon
KM12 colon = test system: KM12 colon
OVCAR-4 ovarian = test system: OVCAR-4 ovarian
HT29 colon = test system: HT29 colon
A498 renal = test system: A498 renal
HOP-92 NSCLC = test system: HOP-92 NSCLC
HCT-116 colon = test system: HCT-116 colon
UACC-62 melanoma = test system: UACC-62 melanoma
OVCAR-3 ovarian = test system: OVCAR-3 ovarian
U251 CNS = test system: U251 CNS
HCC-2998 colon = test system: HCC-2998 colon
UO-31 renal = test system: UO-31 renal
SR leukemia = test system: SR leukemia
NCI/ADR-RES ovarian = test system: NCI/ADR-RES ovarian
OVCAR-5 ovarian = test system: OVCAR-5 ovarian
SK-MEL-28 melanoma = test system: SK-MEL-28 melanoma
DU-145 prostate = test system: DU-145 prostate
HS 578T breast = test system: HS 578T breast
HCT-15 colon = test system: HCT-15 colon
MCF7 breast = test system: MCF7 breast
PC-3 prostate = test system: PC-3 prostate

Measured: TGI

CC1(C)OCC(C2OC3OC(C)(C)OC3C2N)O1 (stereo not given)
> 100 µM: all assays above

O=C(O)c1ccc(C(=O)Nc2cccc3ccccc23)c(C(=O)O)c1
> 100 µM: all assays above

COc1ccc(/C=C2\N=C(N/N=C\C(O)C(O)C(O)C(O)CO)NC2=O)cc1 (stereo not given)
52.2 µM: SN12C renal
33.7 µM: OVCAR-3 ovarian
63.2 µM: SF-268 CNS
53 µM: OVCAR-4 ovarian
35.7 µM: M14 melanoma
36.6 µM: SK-MEL-2 melanoma
46 µM: NCI-H522 lung
88.5 µM: MDA-MB-231 breast
69.5 µM: PC-3 prostate
33.9 µM: HOP-92 NSCLC
88.3 µM: OVCAR-8 ovarian
27.7 µM: T-47D breast
54.3 µM: SNB-75 CNS
54.9 µM: HOP-62 NSCLC
42.7 µM: U251 CNS
54 µM: NCI-H23 lung
93 µM: A498 renal
39.6 µM: MDA-N
38.5 µM: SF-539 CNS
50.6 µM: BT-549 breast
50.3 µM: SK-OV-3 ovarian
71.7 µM: HS 578T breast
91.1 µM: MDA-MB-435
43.4 µM: MALME-3M melanoma
62.3 µM: MOLT-4 leukemia
not listed: SNB-19 CNS | UACC-62 melanoma
> 100 µM: all other assays above
